Experimental data reported in patent US20240052582A1, “COMPOSTABLE TURF WITH DECOMPOSITION INHIBITOR” (Polytex Sportbelage Produktions-GmbH, priority 2017, published 2024).

Experiment: Amount of decomposition inhibitor necessary for a minimum life expectancy of compostable artificial or hybrid turf
Conditions: inhibitor within backing
Description: Due to the wide variety of use case scenarios, stadium architectures and climatic conditions, the amount of decomposition inhibitor that ensures a sufficient life expectancy without unduly delaying the decomposition process is preferably determined empirically.

## Oc1cc(Cl)ccc1Oc1ccc(Cl)cc1Cl [Triclosan, 5-chlor-2-(2,4-dichlorphenoxy)-phenol]
Life expectancy at least 6 Month
  Amount of Decomposition inhibitor necessary for a life expectancy of the turf material of at least [. . .] 6 Month: 0.0005% by % by weight of backing
Life expectancy at least 12 Month
  Amount of Decomposition inhibitor necessary for a life expectancy of the turf material of at least [. . .] 12 Month: 0.001% by % by weight of backing
